Assay results published in patent US10029992B2, “Diaminotriazine compounds and their use as herbicides” (BASF SE, priority 2014, dated 2018).

Tests used:
AMARE [1] = assay: Greenhouse experiment, pre-emergence treatment; format: in vivo, Amaranthus retroflexus; conditions: pre-emergence method
Description: (§1) The seeds of the test plants were sown separately for each species. For the pre-emergence treatment, the active ingredients, which had been suspended or emulsified in water, were applied directly after sowing by means of finely distributing nozzles. The containers were irrigated gently to promote germination and growth and subsequently covered with transparent plastic hoods until the plants had rooted. This cover caused uniform germination of the test plants, unless this had been impaired by the active ingredients. Depending on the species, the plants were kept at 10-25° C. or 20-35° C., respectively. The test period extended over 2 to 4 weeks. During this time, the plants were tended, and their response to the individual treatments was evaluated. Evaluation was carried out using a scale from 0 to 100. 100 means no emergence of the plants, or complete destruction of at least the aerial moieties, and 0 means no damage, or normal course of growth. A moderate herbicidal activity is given at values of at least 60, a good herbicidal activity is given at values of at least 70, and a very good herbicidal activity is given at values of at least 85. […] [table]

ALOMY = assay: Greenhouse experiment, pre-emergence treatment; format: in vivo, Alopecurus myosuroides; conditions: pre-emergence method
Description: (§2) The culture containers used were plastic flowerpots containing loamy sand with approximately 3.0% of humus as the substrate. The seeds of the test plants were sown separately for each species.
(§3) For the pre-emergence treatment, the active ingredients, which had been suspended or emulsified in water, were applied directly after sowing by means of finely distributing nozzles. The containers were irrigated gently to promote germination and growth and subsequently covered with transparent plastic hoods until the plants had rooted. This cover caused uniform germination of the test plants, unless this had been impaired by the active ingredients.
(§4) Depending on the species, the plants were kept at 10-25° C. or 20-35° C., respectively.
(§5) The test period extended over 2 to 4 weeks. During this time, the plants were tended, and their response to the individual treatments was evaluated.
(§6) Evaluation was carried out using a scale from 0 to 100. 100 means no emergence of the plants, or complete destruction of at least the aerial moieties, and 0 means no damage, or normal course of growth. A moderate herbicidal activity is given at values of at least 60, a good herbicidal activity is given at values of at least 70, and a very good herbicidal activity is given at values of at least 85.
(§7) The plants used in the greenhouse experiments were of the following species: […]

APESV = assay: Greenhouse experiment, pre-emergence treatment; format: in vivo, Apera spica-venti; conditions: pre-emergence method
Description: as §2, §3, §4, §5, §6, §7

SETFA [2] = assay: Greenhouse experiment, pre-emergence treatment; format: in vivo, Setaria faberi; conditions: pre-emergence method
Description: as §1

ECHCG [3] = assay: Greenhouse experiment, pre-emergence treatment; format: in vivo, Echinochloa crus-galli; conditions: pre-emergence method
Description: as §2, §3, §4, §5, §6, §7

CAPBP = assay: Greenhouse experiment, post-emergence treatment; format: in vivo, Capsella bursa-pastoris; conditions: post-emergence method, application rate 63 g/ha
Protocol: (§8) The seeds of the test plants were sown separately for each species. […] For this purpose, the test plants were either sown directly and grown in the same containers, or they were first grown separately as seedlings and transplanted into the test containers a few days prior to treatment. Depending on the species, the plants were kept at 10-25° C. or 20-35° C., respectively. The test period extended over 2 to 4 weeks. During this time, the plants were tended, and their response to the individual treatments was evaluated. Evaluation was carried out using a scale from 0 to 100. 100 means no emergence of the plants, or complete destruction of at least the aerial moieties, and 0 means no damage, or normal course of growth. A moderate herbicidal activity is given at values of at least 60, a good herbicidal activity is given at values of at least 70, and a very good herbicidal activity is given at values of at least 85. […] [table]

STEME = assay: Greenhouse experiment, post-emergence treatment; format: in vivo, Stellaria media; conditions: post-emergence method, application rate 63 g/ha
Protocol: as §8

SETVI = assay: Greenhouse experiment, post-emergence treatment; format: in vivo, Setaria viridis; conditions: post-emergence method, application rate 63 g/ha
Protocol: as §8

ECHCG [4] = assay: Greenhouse experiment, post-emergence treatment; format: in vivo, Echinochloa crus-galli; conditions: post-emergence method, application rate 125 g/ha
Protocol: as §8

AMARE [5] = assay: Greenhouse experiment, post-emergence treatment; format: in vivo, Amaranthus retroflexus; conditions: post-emergence method, application rate 125 g/ha
Protocol: as §8

SETFA [6] = assay: Greenhouse experiment, post-emergence treatment; format: in vivo, Setaria faberi; conditions: post-emergence method, application rate 125 g/ha
Protocol: as §8

ELEIN = assay: Greenhouse experiment, post-emergence treatment; format: in vivo, Eleusine indica; conditions: post-emergence method, application rate 125 g/ha
Protocol: as §8

PHBPU = assay: Greenhouse experiment, post-emergence treatment; format: in vivo, Pharbitis purpurea; conditions: post-emergence method, application rate 125 g/ha
Protocol: as §8

ABUTH = assay: Greenhouse experiment, post-emergence treatment; format: in vivo, Abutilon theophrasti; conditions: post-emergence method, application rate 125 g/ha
Protocol: as §8

SMILES: CC(C)(F)c1nc(N)nc(Nc2c(F)cccc2Oc2ccccc2)n1 [Example 25]
- herbicidal activity against AMARE (AMARE [1]; application rate 0.25 kg/ha): very good (a very good herbicidal activity is given at values of at least 85)
- herbicidal activity against ALOMY (ALOMY; application rate 0.25 kg/ha): very good (a very good herbicidal activity is given at values of at least 85)
- herbicidal activity against APESV (APESV; application rate 0.25 kg/ha): very good (a very good herbicidal activity is given at values of at least 85)

SMILES: COC(C)(C)c1nc(N)nc(Nc2c(F)cccc2Oc2cc(C)cc(C)c2)n1 [Example 36]
- herbicidal activity against SEFTA (SETFA [2]; application rate 1000 g/ha): very good (a very good herbicidal activity is given at values of at least 85)
- herbicidal activity against ECHCG (ECHCG [3]; application rate 1000 g/ha): very good (a very good herbicidal activity is given at values of at least 85)
- herbicidal activity against ALOMY (ALOMY; application rate 0.25 kg/ha): good (a good herbicidal activity is given at values of at least 70)
- herbicidal activity against APESV (APESV; application rate 0.25 kg/ha): very good (a very good herbicidal activity is given at values of at least 85)
- herbicidal activity against APESV (APESV; application rate 1000 g/ha): very good (a very good herbicidal activity is given at values of at least 85)

SMILES: CC(C)(F)c1nc(N)nc(Nc2c(F)cccc2Oc2cc(C(F)(F)F)cc(C(F)(F)F)c2)n1 [Example 52]
- herbicidal activity against CAPBP (CAPBP): very good (a very good herbicidal activity is given at values of at least 85)
- herbicidal activity against STEME (STEME): very good (a very good herbicidal activity is given at values of at least 85)
- herbicidal activity against SETVI (SETVI): very good (a very good herbicidal activity is given at values of at least 85)

SMILES: COc1cc(C)cc(Oc2cccc(F)c2Nc2nc(N)nc(C(C)(C)F)n2)c1 [Example 63]
- herbicidal activity against ECHCG (ECHCG [4]): very good (a very good herbicidal activity is given at values of at least 85)
- herbicidal activity against AMARE (AMARE [5]): very good (a very good herbicidal activity is given at values of at least 85)
- herbicidal activity against SETFA (SETFA [6]): very good (a very good herbicidal activity is given at values of at least 85)

SMILES: CC(C)(F)c1nc(N)nc(Nc2c(F)cccc2Oc2cc(Cl)cc(OC(F)(F)F)c2)n1 [Example 64]
- herbicidal activity against ELEIN (ELEIN): very good (a very good herbicidal activity is given at values of at least 85)
- herbicidal activity against PHBPU (PHBPU): very good (a very good herbicidal activity is given at values of at least 85)
- herbicidal activity against SETFA (SETFA [6]): very good (a very good herbicidal activity is given at values of at least 85)

SMILES: COc1cc(Oc2cccc(F)c2Nc2nc(N)nc(C(C)(C)F)n2)cc(C(F)(F)F)c1 [Example 65]
- herbicidal activity against ECHCG (ECHCG [4]): very good (a very good herbicidal activity is given at values of at least 85)
- herbicidal activity against SETFA (SETFA [6]): very good (a very good herbicidal activity is given at values of at least 85)
- herbicidal activity against ABUTH (ABUTH): very good (a very good herbicidal activity is given at values of at least 85)

SMILES: CC(C)(F)c1nc(N)nc(Nc2c(F)cccc2Oc2cc(I)cc(I)c2)n1 [Example 67]
- herbicidal activity against ECHCG (ECHCG [4]): good (a good herbicidal activity is given at values of at least 70)
- herbicidal activity against SETFA (SETFA [6]): good (a good herbicidal activity is given at values of at least 70)

SMILES: CCOc1cc(OCC)cc(Oc2cccc(F)c2Nc2nc(N)nc(C(C)(C)F)n2)c1 [Example 68]
- herbicidal activity against ECHCG (ECHCG [4]): very good (a very good herbicidal activity is given at values of at least 85)
- herbicidal activity against SETFA (SETFA [6]): very good (a very good herbicidal activity is given at values of at least 85)
- herbicidal activity against ABUTH (ABUTH): very good (a very good herbicidal activity is given at values of at least 85)

SMILES: CC(C)Oc1cc(F)cc(Oc2cccc(F)c2Nc2nc(N)nc(C(C)(C)F)n2)c1 [Example 99]
- herbicidal activity against AMARE (AMARE [1]; application rate 500 g/ha): very good (a very good herbicidal activity is given at values of at least 85)
- herbicidal activity against ECHCG (ECHCG [3]; application rate 500 g/ha): very good (a very good herbicidal activity is given at values of at least 85)
- herbicidal activity against ALOMY (ALOMY; application rate 500 g/ha): very good (a very good herbicidal activity is given at values of at least 85)

SMILES: CC(C)(F)c1nc(N)nc(Nc2c(F)cccc2Oc2cc(F)cc(I)c2)n1 [Example 101]
- herbicidal activity against SEFTA (SETFA [2]; application rate 250 g/ha): very good (a very good herbicidal activity is given at values of at least 85)
- herbicidal activity against ECHCG (ECHCG [3]; application rate 250 g/ha): very good (a very good herbicidal activity is given at values of at least 85)
- herbicidal activity against ALOMY (ALOMY; application rate 250 g/ha): good (a good herbicidal activity is given at values of at least 70)
